Assay results taken from ChEMBL document CHEMBL1136081, “Structure-activity relationships of novel anti-malarial agents. Part 7: N-(3-benzoyl-4-tolylacetylaminophenyl)-3-(5-aryl-2-furyl)acrylic acid amides with polar moieties” (Bioorg Med Chem Lett, 2003).

Test system: Plasmodium falciparum
Test: Inhibition against Plasmodium falciparum Dd2 in erythrocytes in semiautomated micro dilution assay
Format: functional, organism-based

Compound	IC50 [nM]
Cc1ccc(CC(=O)Nc2ccc(NC(=O)/C=C/c3ccc(-c4ccc(NC=O)cc4)o3)cc2C(=O)c2ccccc2)cc1	280
Cc1ccc(CC(=O)Nc2ccc(NC(=O)/C=C/c3ccc(-c4ccc(N)cc4)o3)cc2C(=O)c2ccccc2)cc1	260
Cc1ccc(CC(=O)Nc2ccc(NC(=O)/C=C/c3ccc(-c4ccc(C(N)=O)cc4)o3)cc2C(=O)c2ccccc2)cc1	560
Cc1ccc(CC(=O)Nc2ccc(NC(=O)/C=C/c3ccc(-c4ccc(C#N)cc4)o3)cc2C(=O)c2ccccc2)cc1	220
CC(=O)Nc1ccc(-c2ccc(/C=C/C(=O)Nc3ccc(NC(=O)Cc4ccc(C)cc4)c(C(=O)c4ccccc4)c3)o2)cc1	560

These reach a lower IC50. Values come first.

IC50 [nM]	Compound
200	Cc1ccc(CC(=O)Nc2ccc(NC(=O)/C=C/c3ccc(-c4ccc(S(N)(=O)=O)cc4)o3)cc2C(=O)c2ccccc2)cc1
170	COC(=O)c1ccc(-c2ccc(/C=C/C(=O)Nc3ccc(NC(=O)Cc4ccc(C)cc4)c(C(=O)c4ccccc4)c3)o2)cc1
77	Cc1ccc(CC(=O)Nc2ccc(NC(=O)/C=C/c3ccc(-c4ccc(C(F)(F)F)cc4)o3)cc2C(=O)c2ccccc2)cc1
67	CC(=O)c1ccc(-c2ccc(/C=C/C(=O)Nc3ccc(NC(=O)Cc4ccc(C)cc4)c(C(=O)c4ccccc4)c3)o2)cc1
60	CCS(=O)(=O)c1ccc(-c2ccc(/C=C/C(=O)Nc3ccc(NC(=O)Cc4ccc(C)cc4)c(C(=O)c4ccccc4)c3)o2)cc1
37	Cc1ccc(CC(=O)Nc2ccc(NC(=O)/C=C/c3ccc(-c4ccc(S(C)(=O)=O)cc4)o3)cc2C(=O)c2ccccc2)cc1
